What all share (format): cell-based
In one assay the test system is RhV-14 (Rhinovirus). As to the kind of experiment: microbe, parasite or virus in culture. Particulars: Enterovirus; 120 hours at 32° C.; read-out: IC50 (50 percent inhibition of plaque formation), RhV-14.
A further assay has as its system PV-1 (poliovirus). As to the kind of experiment: microbe, parasite or virus in culture. Particulars: Enterovirus C, 72 h, read-out: IC50 (50 percent inhibition of plaque formation), PV-1.
In the next assay the test system is CS-21C (Coxsackie virus). Description: organism not typed. As to conditions: 72 hours at 37° C.; read-out: IC50 (50 percent inhibition of plaque formation), CS-21C.

Molecules are shown by their SMILES. ≈ marks a conversion by molar mass, not a printed value.

As usually defined, the IC50 is the concentration that inhibits the measured activity by half. With `CC(C)S(=O)(=O)n1c(N)nc2ccc(C(=O)c3cccc(F)c3)cc21` [Example 3], the IC50 in the assay on RhV-14 (Rhinovirus) came out at 2.14 µg/mL (≈ 5.92 µM).
As for `CC(C)S(=O)(=O)n1c(N)nc2ccc(C(=O)c3cc(F)cc(F)c3)cc21` [Example 5], in the assay with RhV-14 (Rhinovirus), the IC50 came to 3.9 µg/mL (≈ 10.3 µM).
Turning to `CC(C)S(=O)(=O)n1c(N)nc2ccc(C(=O)c3ccc(OC(F)(F)F)cc3)cc21` [Example 6], the IC50 in the assay with RhV-14 (Rhinovirus) was found to be 0.329 µg/mL (≈ 0.77 µM).
On to `CC(C)S(=O)(=O)n1c(N)nc2ccc(C(=O)c3cc(F)ccc3F)cc21` [Example 20], for which the IC50 with PV-1 (poliovirus) is 0.19 µg/mL (≈ 0.501 µM); in the assay on RhV-14 (Rhinovirus), 1.32 µg/mL (≈ 3.48 µM).
On to `CC(C)S(=O)(=O)n1c(N)nc2ccc(C(=O)c3ccccc3F)cc21` [Example 11], for which the IC50 was found to be 1.7 µg/mL (≈ 4.7 µM) in the assay with PV-1 (poliovirus) and 0.44 µg/mL (≈ 1.22 µM) with CS-21C (Coxsackie virus).

For the origin of these results see patent US5545653A (priority 1995, dated 1996).
